In patent US9242996B2 (Novartis AG, priority 2013, dated 2016) one finds IC50 data, which are given here for 30 compounds.

activated ERK2, sequence (P28482 whole entry): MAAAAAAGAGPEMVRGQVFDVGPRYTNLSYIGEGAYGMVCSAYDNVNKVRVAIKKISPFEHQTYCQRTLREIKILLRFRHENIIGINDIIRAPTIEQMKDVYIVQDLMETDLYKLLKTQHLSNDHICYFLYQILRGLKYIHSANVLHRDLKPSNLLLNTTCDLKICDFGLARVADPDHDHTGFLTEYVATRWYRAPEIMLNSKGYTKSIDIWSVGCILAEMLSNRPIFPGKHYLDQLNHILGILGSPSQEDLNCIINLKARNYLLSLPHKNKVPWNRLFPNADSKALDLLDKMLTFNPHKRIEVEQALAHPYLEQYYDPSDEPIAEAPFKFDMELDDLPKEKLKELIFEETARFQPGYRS

The experiment has as its target activated ERK2 (Homo sapiens (Human), UniProt P28482). In words: Activated ERK2 kinase assay, ERK2 New conditions (AlphaScreen, ERKtide phosphorylation). The class given is biochemical. As to conditions: 0.25 nM ERK2, 200 nM ERKtide peptide, 35 μM ATP, 30 min preincubation. Here is the method:
The assay is carried out in 50 mM HEPES [pH 7.5], 5 mM MgCl2, 1 mM DTT, 0.01% Tween-20, 0.05% BSA using 0.25 nM ERK2, 200 nM ERKtide peptide and 35 μM ATP (all concentrations are final in the reaction) in a total volume of 10.25 μL. […] Compound dilution series are prepared in 100% DMSO. ERK2 is preincubated with compounds for 30 minutes at ambient temperature. Reaction is initiated by addition of a substrate cocktail of ERKtide peptide and ATP and is allowed to proceed for 2-3 hours at ambient temperature. Reaction is terminated by addition of 10 μL of a 2× stop buffer consisting of 100 mM Tris-Cl [pH 7.5], 25 mM EDTA, 0.01% Tween 20, 10 μg/mL of AlphaScreen Protein A Acceptor Beads, 10 μg/mL of Streptavidin Donor Beads (PerkinElmer, Waltham, Mass.), and 1.4 μg/mL phospho-EGF Receptor (Thr669) antibody (Cat #3056, Cell Signaling Technology, Danvers, Mass.). Terminated reactions are read, after overnight incubation in the dark, on an EnVision Multilabel Plate Reader (PerkinElmer, Waltham, Mass.), with excitation and emission wavelengths set to 680 nm and 570 nm, respectively. IC50 values are determined using a four-parameter fit.
What is called IC50 is the concentration that gives 50% inhibition. The low end stands for inhibition by little substance, the high end for a need for much substance. As for `Nc1nccnc1-c1ccc(C(=O)NCc2ccccc2)cc1` [Example 46, 4-(3-aminopyrazin-2-yl)-N-benzylbenzamide], the IC50 was determined as 4.79 µM.

Take `C[C@@H](NC(=O)c1ccc(-c2nc(C3CCOCC3)cnc2N)cc1F)c1ccccc1` [Example 47, (R)-4-(3-amino-6-(tetrahydro-2H-pyran-4-yl)pyrazin-2-yl)-2-fluoro-N-(1-phenylethyl)benzamide]: 0.000818 µM corresponded to half-maximal inhibition (IC50). The compound `Nc1ncc(C2CCOCC2)nc1-c1ccc(C(=O)N[C@@H]2CCCN(S(=O)(=O)c3ccccc3F)C2)c(F)c1` [Example 48, (R)-4-(3-amino-6-(tetrahydro-2H-pyran-4-yl)pyrazin-2-yl)-2-fluoro-N-(1-((2-fluorophenyl)sulfonyl)piperidin-3-yl)benzamide] registered an IC50 of 0.122 µM. Against the preceding compound, the IC50 is about 150-fold higher. Turning to `Nc1ncc(C2CCOCC2)nc1-c1ccc(C(=O)N[C@@H]2CCCN(S(=O)(=O)c3ccccc3)C2)c(F)c1` [Example 49, (R)-4-(3-amino-6-(tetrahydro-2H-pyran-4-yl)pyrazin-2-yl)-2-fluoro-N-(1-(phenylsulfonyl)piperidin-3-yl)benzamide], the IC50 was 0.0459 µM. The compound `CN(C(=O)c1ccc(-c2nc(C3CCOCC3)cnc2N)cc1F)[C@H](CO)c1ccccc1` [Example 53, (S)-4-(3-amino-6-(tetrahydro-2H-pyran-4-yl)pyrazin-2-yl)-2-fluoro-N-(2-hydroxy-1-phenylethyl)-N-methylbenzamide] gave a 50% inhibitory concentration (IC50) of 0.0123 µM. In turn, `Nc1ncc(C2CCOCC2)nc1-c1ccc(C(=O)N2COC[C@@H]2c2ccccc2)cc1` [Example 54, (S)-(4-(3-amino-6-(tetrahydro-2H-pyran-4-yl)pyrazin-2-yl)phenyl)(4-phenyloxazolidin-3-yl)methanone] came in with an IC50 of 0.107 µM. In turn, `CS(=O)(=O)N1CCC(c2cnc(N)c(-c3ccc(C(=O)N[C@H](CO)c4ccccc4)c(F)c3)n2)CC1` [Example 56, (S)-4-(3-amino-6-(1-(methylsulfonyl)piperidin-4-yl)pyrazin-2-yl)-2-fluoro-N-(2-hydroxy-1-phenylethyl)benzamide] had a half-inhibitory concentration (IC50) of 0.00389 µM.

Take `C[C@@H](NC(=O)c1ccc(-c2nc(C3CCN(S(C)(=O)=O)CC3)cnc2N)cc1F)c1cccc(Cl)c1` [Example 57]: the half-inhibitory concentration (IC50) was 0.00114 µM. Compared with the last compound, the IC50 is about 3.4-fold lower. Next, `COC(=O)N1CCC(c2cnc(N)c(-c3ccc(C(=O)N[C@H](CO)c4ccccc4)c(F)c3)n2)CC1` [Example 58, (S)-methyl 4-(5-amino-6-(3-fluoro-4-((2-hydroxy-1-phenylethyl)carbamoyl)phenyl)pyrazin-2-yl)piperidine-1-carboxylate]: 0.00361 µM. In the case of `COC(=O)N1CCC(c2cnc(N)c(-c3ccc(C(=O)N[C@H](CO)c4cccc(Cl)c4)c(F)c3)n2)CC1` [Example 59, (S)-methyl 4-(5-amino-6-(4-((1-(3-chlorophenyl)-2-hydroxyethyl)carbamoyl)-3-fluorophenyl)pyrazin-2-yl)piperidine-1-carboxylate], half-maximal inhibition (IC50) was put at 0.00035 µM. Compared with the last compound, the IC50 is about 10-fold lower. Take `CC(=O)N1CCC(c2cnc(N)c(-c3ccc(C(=O)N[C@H](CO)c4ccccc4)c(F)c3)n2)CC1` [Example 60, (S)-4-(6-(1-acetylpiperidin-4-yl)-3-aminopyrazin-2-yl)-2-fluoro-N-(2-hydroxy-1-phenylethyl)benzamide]: 0.0124 µM corresponded to half-maximal inhibition (IC50). In turn, `CC(=O)N1CCC(c2cnc(N)c(-c3ccc(C(=O)N[C@H](CO)c4cccc(Cl)c4)c(F)c3)n2)CC1` [Example 61, (S)-4-(6-(1-acetylpiperidin-4-yl)-3-aminopyrazin-2-yl)-N-(1-(3-chlorophenyl)-2-hydroxyethyl)-2-fluorobenzamide] had a concentration for half-maximal inhibition (IC50) of 0.00124 µM. Next, `COC(=O)N1CCC(c2cnc(N)c(-c3ccc(C(=O)N[C@H](CO)c4ccccc4)c(F)c3)c2)C1` (stereo partly drawn) [Example 62, methyl 3-(6-amino-5-(3-fluoro-4-(((S)-2-hydroxy-1-phenylethyl)carbamoyl)phenyl)pyridin-3-yl)pyrrolidine-1-carboxylate]: 0.0641 µM; `CS(=O)(=O)N1CCC(c2cnc(N)c(-c3ccc(C(=O)N[C@H](CO)c4ccccc4)c(F)c3)c2)C1` (stereo partly drawn) [Example 63, 4-(2-amino-5-(1-(methylsulfonyl)pyrrolidin-3-yl)pyridin-3-yl)-2-fluoro-N-((S)-2-hydroxy-1-phenylethyl)benzamide]: 0.0233 µM.

In turn, `CCOCCc1cnc(N)c(-c2ccc(C(=O)N[C@H](CO)c3ccccc3)c(F)c2)n1` [Example 72, (S)-4-(3-amino-6-(2-ethoxyethyl)pyrazin-2-yl)-2-fluoro-N-(2-hydroxy-1-phenylethyl)benzamide] displayed an IC50 of 0.177 µM.

For the compound `Nc1ncc(C2CCS(=O)(=O)CC2)cc1-c1ccc(C(=O)NCc2ccccc2)c(F)c1` [Example 78, 4-(2-amino-5-(1,1-dioxidotetrahydro-2H-thiopyran-4-yl)pyridin-3-yl)-N-benzyl-2-fluorobenzamide], it took 0.172 µM to reach half-maximal inhibition (IC50). The compound `CS(=O)(=O)c1cccc(CNC(=O)c2ccc(-c3nc(C4CC4)cnc3N)cc2F)c1` [Example 99, 4-(3-amino-6-cyclopropylpyrazin-2-yl)-2-fluoro-N-(3-(methylsulfonyl)benzyl)benzamide] registered an IC50 of 0.0121 µM.

On to `C[C@@H]1C[C@H](c2cnc(N)c(-c3ccc(C(=O)NCc4cccc(S(C)(=O)=O)c4)cc3)n2)CCO1` [Example 100, 4-(3-amino-6-((2R,4R)-2-methyltetrahydro-2H-pyran-4-yl)pyrazin-2-yl)-N-(3-(methylsulfonyl)benzyl)benzamide], for which the IC50 turned out to be 0.00776 µM. Against the preceding compound, the IC50 is about 1.6-fold lower. For `C[C@H]1C[C@@H](c2cnc(N)c(-c3ccc(C(=O)NCc4cccc(S(C)(=O)=O)c4)cc3)n2)CCO1` [Example 101, 4-(3-amino-6-((2S,4S)-2-methyltetrahydro-2H-pyran-4-yl)pyrazin-2-yl)-N-(3-(methylsulfonyl)benzyl)benzamide], the IC50 was determined as 0.0769 µM. Compared with the last compound, the IC50 is about 9.9-fold higher. In the case of `COC1CCC(c2cnc(N)c(-c3ccc(C(=O)NCc4ccccc4)c(F)c3)n2)C1` (stereo not drawn) [Example 104, 4-(3-amino-6-(3-methoxycyclopentyl)pyrazin-2-yl)-N-benzyl-2-fluorobenzamide], the concentration for half-maximal inhibition (IC50) was 0.191 µM. On to `Cn1cc(-c2cnc(N)c(-c3ccc(C(=O)N[C@H](CO)c4ccccc4)c(F)c3)c2)cn1` [Example 107, (S)-4-(2-amino-5-(1-methyl-1H-pyrazol-4-yl)pyridin-3-yl)-2-fluoro-N-(2-hydroxy-1-phenylethyl)benzamide], for which the IC50 came out at 0.00116 µM. In turn, `Nc1ncc(C2CCOCC2)nc1-c1ccc2c(c1)OCCN(Cc1ccccc1)C2=O` [Example 109, 8-(3-amino-6-(tetrahydro-2H-pyran-4-yl)pyrazin-2-yl)-4-benzyl-3,4-dihydrobenzo[f][1,4]oxazepin-5(2H)-one] displayed an IC50 of 0.00581 µM. Against the preceding compound, the IC50 is about 5-fold higher. In the case of `Nc1ncc(C2CCS(=O)(=O)CC2)cc1-c1ccc2c(c1)OCCN(Cc1ccccc1)C2=O` [Example 110, 8-(2-amino-5-(1,1-dioxidotetrahydro-2H-thiopyran-4-yl)pyridin-3-yl)-4-benzyl-3,4-dihydrobenzo[f][1,4]oxazepin-5(2H)-one] it was 1 µM; in that of `Nc1ncc(CCO)nc1-c1ccc(C(=O)N[C@H](CO)c2ccccc2)c(F)c1` [Example 111, (S)-4-(3-amino-6-(2-hydroxyethyl)pyrazin-2-yl)-2-fluoro-N-(2-hydroxy-1-phenylethyl)benzamide], 0.0308 µM; in that of `COCCc1cnc(N)c(-c2ccc(C(=O)N[C@H](CO)c3ccccc3)c(F)c2)n1` [Example 112, (S)-4-(3-amino-6-(2-methoxyethyl)pyrazin-2-yl)-2-fluoro-N-(2-hydroxy-1-phenylethyl)benzamide], 0.141 µM. In turn, `Nc1ncc(C2CCOCC2)cc1-c1ccc(C(=O)N[C@@H]2CCCN(Cc3ccccc3F)C2)c(F)c1` [Example 113, (R)-4-(2-amino-5-(tetrahydro-2H-pyran-4-yl)pyridin-3-yl)-2-fluoro-N-(1-(2-fluorobenzyl)piperidin-3-yl)benzamide] yielded a half-inhibitory concentration (IC50) of 0.78 µM. As for `N#CCCc1cnc(N)c(-c2ccc(C(=O)N[C@H](CO)c3ccccc3)c(F)c2)n1` [Example 114, (S)-4-(3-amino-6-(2-cyanoethyl)pyrazin-2-yl)-2-fluoro-N-(2-hydroxy-1-phenylethyl)benzamide], 0.124 µM corresponded to half-maximal inhibition (IC50). Compared with the last compound, the IC50 is about 6.3-fold lower. The compound `Nc1ncc(C2CCOCC2)nc1-c1ccc(C(=O)N[C@H]2CCCN(Cc3ccccc3F)C2)c(F)c1` [Example 125, (S)-4-(3-amino-6-(tetrahydro-2H-pyran-4-yl)pyrazin-2-yl)-2-fluoro-N-(1-(2-fluorobenzyl)piperidin-3-yl)benzamide] showed a concentration for half-maximal inhibition (IC50) of 2.23 µM. `Nc1ncc(C2CCOCC2)nc1-c1ccc(C(=O)N[C@@H]2CCCN(Cc3ccccc3F)C2)c(F)c1` [Example 126, (R)-4-(3-amino-6-(tetrahydro-2H-pyran-4-yl)pyrazin-2-yl)-2-fluoro-N-(1-(2-fluorobenzyl)piperidin-3-yl)benzamide] had an IC50 of 0.169 µM.

For the compound `Cn1cc(-c2cnc(N)c(-c3ccc(C(=O)N[C@H](CO)c4cccc(Cl)c4)c(F)c3)c2)nn1` [Example 128, (S)-4-(2-amino-5-(1-methyl-1H-1,2,3-triazol-4-yl)pyridin-3-yl)-N-(1-(3-chlorophenyl)-2-hydroxyethyl)-2-fluorobenzamide], the IC50 came to 0.000835 µM.
